The text below walks through data of patent EP2140864A2 (H. Lundbeck A/S, priority 2001, dated 2002).

Each structure is given as a SMILES string.

One test concerns the target T1, human GAL3 receptor (Homo sapiens, UniProt O60755).
T1 construct: expressed in transfected cells
T1 sequence (O60755 1-368): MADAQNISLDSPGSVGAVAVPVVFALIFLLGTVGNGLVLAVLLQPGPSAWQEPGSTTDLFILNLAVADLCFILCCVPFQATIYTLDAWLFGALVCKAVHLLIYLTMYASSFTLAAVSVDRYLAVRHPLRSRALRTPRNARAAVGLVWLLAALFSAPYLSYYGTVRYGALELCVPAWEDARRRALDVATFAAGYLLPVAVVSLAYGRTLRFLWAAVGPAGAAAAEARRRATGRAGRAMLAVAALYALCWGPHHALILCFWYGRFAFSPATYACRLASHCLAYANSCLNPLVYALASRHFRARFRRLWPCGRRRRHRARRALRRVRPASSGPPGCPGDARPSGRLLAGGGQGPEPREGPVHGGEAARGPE
The test is described as follows: Radioligand binding at cloned human GAL3 receptor. The conditions noted are these: indolones, cloned human receptor; read-out: Ki GalR3. Put shortly:
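Compound vehicle, as final assay concentration, was 3% DMSO (indolones) or 1% ethanol/0.09% polypuronic acid F-127 (pyrimidines). Binding measured on fresh or frozen membranes of stably transfected LM(tk-) mouse fibroblasts carrying cloned human GAL3, in pH 7.4 HEPES buffer; values derived by nonlinear regression.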
On to `O=C1/C(=N\c2ccc(Cl)c(Cl)c2)c2ccccc2N1Cc1ccccn1` [Example 254], for which the Ki turned out to be 64 nM.

For the molecule `Cc1noc(C)c1CN1C(=O)/C(=N\c2ccc(Cl)c(Cl)c2)c2ccccc21` [Example 255], the Ki stood at 49 nM.

For `O=C1/C(=N\c2ccc(Cl)c(Cl)c2)c2ccccc2N1c1cccc(C(F)(F)F)c1` [Example 256, (3Z)-3-[(3,4-DICHLOROPHENYL)IMINO]-1-[3-(TRIFLUOROMETHYL)PHENYL]-1,3-DIHYDRO-2H-INDOL-2-ONE], the inhibitory constant (Ki) is 18 nM.

Turning to `O=C1/C(=N\c2ccc(Cl)c(Cl)c2)c2ccccc2N1c1cc(Cl)cc(Cl)c1` [Example 257, (3Z)-1-(3,5-DICHLOROPHENYL)-3-[(3,4-DICHLOROPHENYL)IMINO]-1,3-DIHYDRO-2H-INDOL-2-ONE], the inhibition constant (Ki) is 33 nM.

As to `COc1ccc2c(c1)N(c1ccccc1)C(=O)/C2=N\c1ccc(Cl)c(Cl)c1` [Example 258, (3Z)-3-[(3,4-DICHLOROPHENYL)IMINO]-6-METHOXY-1-PHENYL-1,3-DIHYDRO-2H-INDOL-2-ONE], the Ki amounted to 67 nM.

Consider `Cc1cc(/N=C2\C(=O)N(c3ccsc3)c3ccccc32)ccc1Cl` [Example 259], for which the Ki is 55 nM.

Turning to `O=C1/C(=N\c2ccc3ccccc3c2)c2ccccc2N1c1ccsc1` [Example 260, (3Z)-3-(2-NAPHTHYLIMINO)-1-(3-THIENYL)-1,3-DIHYDRO-2H-INDOL-2-ONE], the Ki turned out to be 60 nM.

As to `O=C1/C(=N\c2ccc(Cl)cc2)c2ccccc2N1c1ccsc1` [Example 261, (3Z)-3-[(4-CHLOROPHENYL)IMINO]-1-(3-THIENYL)-1,3-DIHYDRO-2H-INDOL-2-ONE], the Ki came to 34 nM.

As for `O=C1/C(=N\c2ccc(I)cc2)c2ccccc2N1c1ccsc1` [Example 262, (3Z)-3-[(4-IODOPHENYL)IMINO]-1-(3-THIENYL)-1,3-DIHYDRO-2H-INDOL-2-ONE], the Ki was 46 nM.

`Cc1ccc(/N=C2\C(=O)N(c3ccsc3)c3ccccc32)cc1` [Example 263]: the Ki was 136 nM.

Regarding `O=C1/C(=N\c2cc(F)cc(F)c2)c2ccccc2N1c1ccsc1` [Example 264, (3Z)-3-[(3,5-DIFLUOROPHENYL)IMINO]-1-(3-THIENYL)-1,3-DIHYDRO-2H-INDOL-2-ONE], the inhibitory constant (Ki) was determined as 27 nM.

Turning to `O=C1/C(=N\c2ccc(-c3ccccc3)cc2)c2ccccc2N1c1ccsc1` [Example 265, (3Z)-3-([1,1'-BIPHENYL]-4-YLIMINO)-1-(3-THIENYL)-1,3-DIHYDRO-2H-INDOL-2-ONE], the Ki amounted to 80 nM.

In the case of `CCOC(=O)c1cccc(/N=C2\C(=O)N(c3ccsc3)c3ccccc32)c1` [Example 266, ETHYL 3-{[(3Z)-2-OXO-1-(3-THIENYL)-1,2-DIHYDRO-3H-INDOL-3-YLIDENE]AMINO}BENZOATE], the Ki turned out to be 236 nM.

Turning to `O=C1/C(=N\c2ccc(Cl)nc2)c2ccccc2N1c1ccsc1` [Example 267], the Ki worked out at 234 nM.

As to `O=C1/C(=N\c2ccc(Br)cc2)c2ccccc2N1c1ccsc1` [Example 269, (3Z)-3-[(4-BROMOPHENYL)IMINO]-1-(3-THIENYL)-1,3-DIHYDRO-2H-INDOL-2-ONE], the Ki is 46 nM.

Take `O=C1/C(=N\c2cccc(Cl)c2)c2ccccc2N1c1ccsc1` [Example 270, (3Z)-3-[(3-CHLOROPHENYL)IMINO]-1-(3-THIENYL)-1,3-DIHYDRO-2H-INDOL-2-ONE]: the Ki is 42 nM.

Staying with this test, now noted: pyrimidines, cloned human receptor; read-out: Ki GalR3.
As for `Cc1ccc(Nc2cc(N(C)C)nc(N(C)CCc3ccccc3)n2)cc1` [Example 248], the Ki was 33 nM.

In the case of `Cc1ccc(Nc2cc(N3CCCCC3)nc(N3CCN(c4c(C(F)(F)F)ccc[n+]4[O-])CC3)n2)cc1` [Example 249], the Ki was 386 nM.

Turning to `Cc1ccc(Nc2cc(N(C)C)nc(NCCc3ccccc3)n2)cc1` [Example 250], the inhibitory constant (Ki) amounted to 119 nM.

As to `COc1cccc(Nc2cc(N(C)C)nc(N(C)CCc3ccccc3)n2)c1` [Example 251], the inhibitory constant (Ki) came out at 54 nM.

Consider `COc1cccc(Nc2cc(N(C)C)nc(N3CCN(Cc4ccccc4)CC3)n2)c1` [Example 252], for which the Ki was determined as 88 nM.

Regarding `Cc1ccc(Nc2cc(N(C)C)nc(N3CCN(Cc4ccccc4)CC3)n2)cc1` [Example 253], the inhibition constant (Ki) came to 49 nM.

As usually defined, the Ki is a measure of affinity in units of concentration, obtained from inhibition or displacement.
